{"source": "patent US11096985B2", "about": "“Antimicrobial peptides, their variants and uses” (priority 2015, dated 2021)", "key": {"[1]": {"system": "clinical strains of Escherichia coli", "assay": "MIC, clinical strains of E. coli", "assay_type": "cell-based", "parameters": "unit: μg/ml", "conditions": "microdilution, Muller Hinton broth-cation adjusted, 0.02% BSA, 0.2% acetic acid", "protocol": "(§1) Minimum inhibition concentrations (MICs) were determined against Escherichia coli (ATCC 25922), Staphylococcus aureus (ATCC 25923), Klebsiella pneumoniae (ATCC 10031) and Pseudomonas aeruginosa (ATCC 27853). Also clinical strains of E. coli, K. pneumoniae, E. cloacae, P. aeruginosa, Serratia marcescens, Proteus mirabilis, S. pneumoniae, Acinetobacter baumannii, A. johnsonii and S. aureus were used for MICs assays. Additionally, clinical strains of yeast including Candida albicans, C. glabrata, C. parapsilosis and C. quillermondiae were used. The susceptibility of these microorganisms to Chain peptides were determined using micro broth dilution assay. Colonies of the respective microorganism from Muller Hinton (MH) agar plates incubated overnight were suspended in MH broth media and final concentration of microorganism was adjusted to 5.0×10^5 cfu/ml. An aliquot of 10 μl of each Chain peptide, or gentamicin, tetracycline as reference antibiotics were added in differing concentrations along with 90 μl of bacterial suspension to 96 well polypropylene plates and incubated at 37° C. for 20 to 24 hours. Concentrations of Chain peptides and reference antibiotics ranged from 0.125 to 128 μg/ml and the MICs were recorded as the lowest concentration with no visual growth of bacteria. Similarly, antifungal MICs were tested in Potato dextrose broth.\n(§2) Clinical strains of yeasts including Candida albicans, C. glabrata, C. parapsilosis and C. quillermondiae were also tested with the 12 Chain peptides. The minimum inhibitory concentration (MICs) varied between these peptides and are presented in Tables 4a, 4b, 4c and 5a, 5b, 5c. Peptides Chain 105, 201 and 308 are broad spectrum antimicrobials with MICs between 0.5-32 μg/ml against all the bacteria and yeasts tested, except Serratia marcescens and Proteus mirabilis, against which the MICs were between 64-128 μg/ml. Peptide Chain 306 has narrow spectrum activity against E.coli at 1 μg/ml and for the rest of the bacterial strains at >32 μg/ml (FIG. 10)."}, "[2]": {"system": "clinical strains of Klebsiella pneumoniae", "assay": "MIC, clinical strains of K. pneumoniae", "assay_type": "cell-based", "parameters": "unit: μg/ml", "conditions": "microdilution, Muller Hinton broth-cation adjusted, 0.02% BSA, 0.2% acetic acid", "protocol": "as §1, §2"}, "[3]": {"system": "clinical strains of Pseudomonas aeruginosa", "assay": "MIC, clinical strains of P. aeruginosa", "assay_type": "cell-based", "parameters": "unit: μg/ml", "conditions": "microdilution, Muller Hinton broth-cation adjusted, 0.02% BSA, 0.2% acetic acid", "protocol": "as §1, §2"}, "[4]": {"system": "clinical strains of Serratia marcescens", "assay": "MIC, clinical strains of Serratia marcescens", "assay_type": "cell-based", "parameters": "unit: µg/mL", "conditions": "microdilution, Muller Hinton broth-cation adjusted, 0.02% BSA, 0.2% acetic acid", "protocol": "as §1, §2"}, "[5]": {"system": "clinical strains of Proteus mirabilis", "assay": "MIC, clinical strains of Proteus mirabilis", "assay_type": "cell-based", "parameters": "unit: µg/mL", "conditions": "microdilution, Muller Hinton broth-cation adjusted, 0.02% BSA, 0.2% acetic acid", "protocol": "as §1, §2"}, "[6]": {"system": "clinical strains of Enterobacter cloacae", "assay": "MIC, clinical strains of Enterobacter cloacae", "assay_type": "cell-based", "parameters": "unit: μg/ml", "conditions": "microdilution, Muller Hinton broth-cation adjusted, 0.02% BSA, 0.2% acetic acid", "protocol": "as §1, §2"}, "[7]": {"system": "clinical strains of Staphylococcus aureus", "assay": "MIC, clinical strains of S. aureus", "assay_type": "cell-based", "parameters": "unit: μg/ml", "conditions": "microdilution, Muller Hinton broth-cation adjusted, 0.02% BSA, 0.2% acetic acid", "protocol": "as §1, §2"}, "[8]": {"system": "clinical strains of Streptococcus pneumoniae", "assay": "MIC, clinical strains of Streptococcus pneumoniae", "assay_type": "cell-based", "parameters": "unit: µg/mL", "conditions": "microdilution, Muller Hinton broth-cation adjusted, 0.02% BSA, 0.2% acetic acid", "protocol": "as §1, §2"}, "[9]": {"system": "clinical strains of Candida albicans", "assay": "MIC, clinical yeast strains, Candida albicans", "assay_type": "cell-based", "parameters": "unit: μg/ml", "how_it_was_run": "(§3)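 By broth microdilution, Chain peptides from 0.125 to 128 μg/ml were tested against clinical strains adjusted to 5.0×10^5 cfu/ml, with bacteria in MH broth and yeasts in Potato dextrose broth. After 20–24 h at 37 °C, the lowest peptide concentration without visible growth was scored as MIC.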"}, "[10]": {"system": "clinical strains of C. glabrata", "assay": "MIC, clinical yeast strains, C. glabrata", "assay_type": "cell-based, Candida glabrata", "parameters": "unit: μg/ml", "how_it_was_run": "as §3"}, "[11]": {"system": "clinical strains of C. parapsilosis", "assay": "MIC, clinical yeast strains, C. parapsilosis", "assay_type": "cell-based, Candida parapsilosis", "parameters": "unit: μg/ml", "how_it_was_run": "as §3"}, "[12]": {"system": "clinical strains of C. quillermondiae", "assay": "MIC, clinical yeast strains, C. quillermondiae", "assay_type": "cell-based", "conditions": "C. quillermondiae clinical yeast strain 1", "how_it_was_run": "as §3"}}, "note": "Where a SMILES comes first, the peptide text is derived from it. [ ]: non-standard residue; d: D form.", "data": [{"smiles": "CC(C)C[C@@H](NC(=O)[C@@H](CCCCN)NC(=O)[C@@H](CCCCN)NC(=O)[C@@H](Cc1ccccc1)NC(=O)[C@@H](CC(C)C)NC(=O)[C@@H](Cc1c[nH]c2ccccc12)NC(=O)[C@@H](CCCNC(=N)N)NC(=O)[C@@H](Cc1c[nH]c2ccccc12)NC(=O)[C@@H](CCCCN)NC(=O)[C@@H](CCCNC(=N)N)NC(=O)[C@H](N)CCCCN)C(=O)O", "note": "[Chain310D] (H-[dK][dR][dK][dW][dR][dW][dL][dF][dK][dK][dL]-OH)", "values": [{"measurement": "Minimum inhibitory concentration", "setting": "[1]; Escherichia coli clinical strain 1", "result": 4}, {"measurement": "Minimum inhibitory concentration", "setting": "[1]; Escherichia coli clinical strain 2", "result": 32}, {"measurement": "Minimum inhibitory concentration", "setting": "[1]; Escherichia coli clinical strain 3", "result": 16}, {"measurement": "Minimum inhibitory concentration", "setting": "[1]; Escherichia coli clinical strain 4", "result": 16}, {"measurement": "Minimum inhibitory concentration", "setting": "[1]; Escherichia coli clinical strain 5", "result": 16}, {"measurement": "Minimum inhibitory concentration", "setting": "[2]; Klebsiella pneumoniae clinical strain 1", "result": 64}, {"measurement": "Minimum inhibitory concentration", "setting": "[2]; Klebsiella pneumoniae clinical strain 2", "result": 64}, {"measurement": "Minimum inhibitory concentration", "setting": "[2]; Klebsiella pneumoniae clinical strain 3", "result": 128}, {"measurement": "Minimum inhibitory concentration", "setting": "[2]; Klebsiella pneumoniae clinical strain 4", "result": 64}, {"measurement": "Minimum inhibitory concentration", "setting": "[2]; Klebsiella pneumoniae clinical strain 5", "result": 32}, {"measurement": "Minimum inhibitory concentration", "setting": "[3]; Pseudomonas aeruginosa clinical strain 1", "result": 8}, {"measurement": "Minimum inhibitory concentration", "setting": "[3]; Pseudomonas aeruginosa clinical strain 2", "result": 16}, {"measurement": "Minimum inhibitory concentration", "setting": "[3]; Pseudomonas aeruginosa clinical strain 3", "result": 16}, {"measurement": "Minimum inhibitory concentration", "setting": "[3]; Pseudomonas aeruginosa clinical strain 4", "result": 8}, {"measurement": "Minimum inhibitory concentration", "setting": "[3]; Pseudomonas aeruginosa clinical strain 5", "result": 4}, {"measurement": "Minimum inhibitory concentration", "setting": "[4]; Serratia marcescens clinical strain 1", "result": ">128"}, {"measurement": "Minimum inhibitory concentration", "setting": "[4]; Serratia marcescens clinical strain 2", "result": ">128"}, {"measurement": "Minimum inhibitory concentration", "setting": "[4]; Serratia marcescens clinical strain 3", "result": ">128"}, {"measurement": "Minimum inhibitory concentration", "setting": "[4]; Serratia marcescens clinical strain 4", "result": ">128"}, {"measurement": "Minimum inhibitory concentration", "setting": "[4]; Serratia marcescens clinical strain 5", "result": ">128"}, {"measurement": "Minimum inhibitory concentration", "setting": "[5]; Proteus mirabilis clinical strain 1", "result": ">128"}, {"measurement": "Minimum inhibitory concentration", "setting": "[5]; Proteus mirabilis clinical strain 2", "result": ">128"}, {"measurement": "Minimum inhibitory concentration", "setting": "[5]; Proteus mirabilis clinical strain 3", "result": ">128"}, {"measurement": "Minimum inhibitory concentration", "setting": "[5]; Proteus mirabilis clinical strain 4", "result": ">128"}, {"measurement": "Minimum inhibitory concentration", "setting": "[5]; Proteus mirabilis clinical strain 5", "result": ">128"}, {"measurement": "Minimum inhibitory concentration", "setting": "[6]; Enterobacter cloacae clinical strain 1", "result": 128}, {"measurement": "Minimum inhibitory concentration", "setting": "[6]; Enterobacter cloacae clinical strain 2", "result": 64}, {"measurement": "Minimum inhibitory concentration", "setting": "[6]; Enterobacter cloacae clinical strain 3", "result": 16}, {"measurement": "Minimum inhibitory concentration", "setting": "[6]; Enterobacter cloacae clinical strain 4", "result": 8}, {"measurement": "Minimum inhibitory concentration", "setting": "[6]; Enterobacter cloacae clinical strain 5", "result": 16}, {"measurement": "Minimum inhibitory concentration", "setting": "[7]; Staphylococcus aureus clinical strain 1", "result": 8}, {"measurement": "Minimum inhibitory concentration", "setting": "[7]; Staphylococcus aureus clinical strain 2", "result": 16}, {"measurement": "Minimum inhibitory concentration", "setting": "[7]; Staphylococcus aureus clinical strain 3", "result": 8}, {"measurement": "Minimum inhibitory concentration", "setting": "[7]; Staphylococcus aureus clinical strain 4", "result": 8}, {"measurement": "Minimum inhibitory concentration", "setting": "[7]; Staphylococcus aureus clinical strain 5", "result": 4}, {"measurement": "Minimum inhibitory concentration", "setting": "[8]; Streptococcus pneumoniae clinical strain 1", "result": 128}, {"measurement": "Minimum inhibitory concentration", "setting": "[8]; Streptococcus pneumoniae clinical strain 2", "result": 128}, {"measurement": "Minimum inhibitory concentration", "setting": "[8]; Streptococcus pneumoniae clinical strain 3", "result": 128}, {"measurement": "Minimum inhibitory concentration", "setting": "[8]; Streptococcus pneumoniae clinical strain 4", "result": 128}, {"measurement": "Minimum inhibitory concentration", "setting": "[8]; Streptococcus pneumoniae clinical strain 5", "result": 64}, {"measurement": "Minimum inhibitory concentration", "setting": "[9]; Candida albicans clinical yeast strain 1", "result": 16}, {"measurement": "Minimum inhibitory concentration", "setting": "[9]; Candida albicans clinical yeast strain 2", "result": 16}, {"measurement": "Minimum inhibitory concentration", "setting": "[9]; Candida albicans clinical yeast strain 3", "result": 16}, {"measurement": "Minimum inhibitory concentration", "setting": "[9]; Candida albicans clinical yeast strain 4", "result": 16}, {"measurement": "Minimum inhibitory concentration", "setting": "[9]; Candida albicans clinical yeast strain 5", "result": 16}, {"measurement": "Minimum inhibitory concentration", "setting": "[10]; C. glabrata clinical yeast strain 1", "result": 16}, {"measurement": "Minimum inhibitory concentration", "setting": "[10]; C. glabrata clinical yeast strain 2", "result": 16}, {"measurement": "Minimum inhibitory concentration", "setting": "[10]; C. glabrata clinical yeast strain 3", "result": 128}, {"measurement": "Minimum inhibitory concentration", "setting": "[10]; C. glabrata clinical yeast strain 4", "result": 128}, {"measurement": "Minimum inhibitory concentration", "setting": "[11]; C. parapsilosis clinical yeast strain 1", "result": 64}, {"measurement": "Minimum inhibitory concentration", "setting": "[11]; C. parapsilosis clinical yeast strain 2", "result": 64}, {"measurement": "Minimum inhibitory concentration", "setting": "[11]; C. parapsilosis clinical yeast strain 3", "result": 64}, {"measurement": "Minimum inhibitory concentration", "setting": "[11]; C. parapsilosis clinical yeast strain 4", "result": 16}, {"measurement": "Minimum inhibitory concentration", "setting": "[12]", "result": 8}]}]}
